Test results taken from publication PMC8799644, “Decisive role of water and protein dynamics in residence time of p38α MAP kinase inhibitors” (Nature Communications, 2022).
“And” between values parts separate entries of the source, which are not always exact repeats. Equal entries are not always repeated. Where two headings read alike, the source gives them in different places.

Assays:
p38α MAP kinase = p38α MAP kinase (Homo sapiens, UniProt Q16539); test: ADP-Glo luminescence kinase assay (isolated enzyme); format: biochemical
Method: IC50 determinations were performed using the luminescence-based ADP-Glo^TM assay by Promega, which measures kinase activity based on ADP formation. All required reagents were prepared according to manufacturer’s protocol. […] The kinase reaction was started by adding the substrate and ATP. After 60 min incubation time, the reaction was terminated by adding ADP-Glo^TM reagent and an incubation time of 60 min. At last, ADP-Glo TM kinase detection reagent was added and incubated for 30 min. All reactions were carried out on a plate shaker at room temperature. […] The ratio between kinase reaction, ADP-Glo TM reagent and ADP-Glo TM kinase detection reagent was 1:1:2. The positive control consisted of p38α MAP kinase, substrate and buffer. The assay was performed in triplicates. The negative control consisted of all kinase reaction components without enzyme. Luminescence was detected using the plate reader FilterMax F5 by Molecular Devices with subsequent data analysis using GraphPad Prism version 7.0.0. for Windows (GraphPad Software, San Diego, CA, USA).

p38α MAPK [1] = target: T1, p38α MAPK (Homo sapiens, UniProt Q16539); test: HotSpot radiometric kinase assay (Reaction Biology); format: biochemical; conditions: n = 1; 10 μM ATP; read-out: IC50 isolated enzyme p38α MAPK HotSpot
Method: Hotspot^TM radiometric assay[49] was conducted by Reaction Biology (Reaction Biology Corp., Malvern, PA, USA). In brief, five-dose singleton measurements were conducted starting from 1 μM compound concentration with a ten-fold serial dilution (lowest concentration of 0.1 nM). ATP concentration of 10 μM was used in the assay.

p38α MAPK [2] = target: T1, p38α MAPK; test: Fluorescence polarization (Transcreener ADP) jump-dilution target residence time; format: biochemical; conditions: for millipolarization mP: Compound 1 run, replicas 1-3
p38α MAPK [3] = target: T1, p38α MAPK; conditions: cited from earlier work
p38α MAPK [4] = target: T1, p38α MAPK; conditions: n = 2; cited from earlier work
p38α MAPK [5] = target: T1, p38α MAPK; test: Cell-based eGFP-MK2 translocation assay, DLD1_eGFP-MK2 cells; parameters: endogenous in cells
Text: (§1) For optical analysis, cells were fixed using 4% PFA/PBS following DAPI staining and subjected to automated high content analysis (HCA) image acquisition using an Image Xpress micro XL microscope (Molecular Devices). 40× Plan Apo objective was used to acquire FITC and DAPI signals at nine sites per well. MetaXpress® Custom Module Editor Software (64 bit, 6.2.3.733, Molecular Devices) was trained for automated image analysis. DAPI signal was used to define nuclear region of interest (ROI) and DAPI-negative cytoplasmic ring for respective cytoplasmic ROI. Non-cellular FITC background signals were subtracted from defined ROIs. Nuclear to cytoplasmic ratios were calculated from cellular fluorescence intensities of eGFP-MK2 reporter within defined ROIs. Cells with ratios within the 10–90 percentiles of all measured cells were taken into account.
Supplementary Figure 1. Cell-based eGFP-MK2 translocation assay: DLD1 cell line.
(A) Schematic overview of the cell-based eGFP-MK2 translocation assay. Active p38a MAPK phosphorylates its nuclear substrate MapKap2 (MK2) which leads to the exposure of the nuclear export signal and results in a cytoplasmic relocalization of MK2. Using a fluorescently labelled eGFP-MK2 as reporter, nuclear-cytoplasmic translocation can be used to monitor p38a MAPK […]
(B) Human DLD1 cell line stably […]
expressing eGFP-MK2 reporter under different treatment conditions.
(1 picture or pasted object on this page, not shown here)
Shown are microscopic images which were subjected to automated high content analysis to measure and calculate nuclear to cytoplasmic ratios of eGFP-MK2 signals providing the basis to evaluate inhibitory potency of p38a MAPK modulating […]
3 independent biological replicates. Scale bar: 50 µm. (C) Inhibition of eGFP-MK2 translocation by the compounds in DLD1_eGFP-MK2 cells. Normalized fluorescence (Fl) intensity ratio of […]
respectively. […] Data are presented as mean ± standard deviation (SD) of three biological replicates. Source data are provided as a Source Data […]
(§2) Supplementary Figure 2. Cell-based eGFP-MK2 translocation assay: HCT116 cell line.
(A) Human HCT116 cell line stably expressing eGFP-MK2 reporter under different treatment

p38α MAPK [6] = target: T1, p38α MAPK; test: Cell-based eGFP-MK2 translocation assay, HCT116_eGFP-MK2 cells; parameters: endogenous in cells
Text: as §1, with “account. […]” for “account.”
as §2
(A) Human HCT116 cell line stably expressing eGFP-MK2 reporter under different treatment […]
nucleus. Upon activation of the MAPK/p38 pathway, eGFP-MK2 is translocated to the cytoplasm […]
microscopic images which were subjected to automated high content analysis to measure and calculate nuclear to cytoplasmic ratios of eGFP-MK2 signals providing the basis to evaluate inhibitory potency of p38a MAPK modulating compounds. […]
sites that were imaged per condition for each of 3 independent biological replicates. Scale bar:
Normalized fluorescence (Fl) intensity ratio of nucleus/cytoplasm.
Data are presented as mean ± SD of three biological replicates. […]

T1 sequence (Q16539 whole entry): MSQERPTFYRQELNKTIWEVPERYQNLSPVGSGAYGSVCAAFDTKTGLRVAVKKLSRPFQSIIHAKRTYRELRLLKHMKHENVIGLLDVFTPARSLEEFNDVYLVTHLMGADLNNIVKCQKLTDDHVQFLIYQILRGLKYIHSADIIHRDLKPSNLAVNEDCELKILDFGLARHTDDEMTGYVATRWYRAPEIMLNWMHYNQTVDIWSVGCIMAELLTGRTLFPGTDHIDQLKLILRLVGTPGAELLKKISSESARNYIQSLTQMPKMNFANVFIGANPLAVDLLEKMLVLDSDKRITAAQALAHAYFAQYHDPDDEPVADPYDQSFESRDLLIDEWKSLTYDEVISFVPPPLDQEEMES
Sequence of p38α MAP kinase (Q16539 whole entry): as above

## O=C(NCCN1CCOCC1)c1ccc2c(c1)C(=O)c1ccc(Nc3ccc(F)cc3F)cc1CC2 [Compound 1]
p38α MAP kinase; mean ± SD, 150 μM ATP, read-out: IC50 isolated enzyme p38α MAPK ADP-Glo (mean)
  IC50: 31.3 nM and 31 nM
p38α MAP kinase; single experiments of source data, read-out: IC50 ADP Glo, individual determination
  IC50: 35 nM and 40 nM and 19 nM
p38α MAPK [1]
  IC50: < 1 nM
p38α MAPK [2]; Time 15 min
  millipolarization mP: 250.23 mP and 238.61 mP and 252.02 mP
p38α MAPK [2]; Time 20 min
  millipolarization mP: 235.80 mP and 229.96 mP and 227.02 mP
p38α MAPK [2]; Time 25 min
  millipolarization mP: 216.96 mP and 215.61 mP and 220.53 mP
p38α MAPK [2]; Time 30 min
  millipolarization mP: 204.83 mP and 208.80 mP and 213.25 mP
p38α MAPK [2]; Time 35 min
  millipolarization mP: 199.40 mP and 197.40 mP and 204.19 mP
p38α MAPK [2]; Time 40 min
  millipolarization mP: 190.24 mP and 185.07 mP and 187.77 mP
p38α MAPK [2]; Time 45 min
  millipolarization mP: 188.70 mP and 189.13 mP and 187.22 mP
p38α MAPK [2]; Time 50 min
  millipolarization mP: 189.84 mP and 186.39 mP and 191.23 mP
p38α MAPK [2]; Time 55 min
  millipolarization mP: 181.96 mP and 176.31 mP and 180.38 mP
p38α MAPK [2]; Time 60 min
  millipolarization mP: 189.85 mP and 181.69 mP and 188.39 mP
p38α MAPK [2]; Time 65 min
  millipolarization mP: 179.72 mP and 178.04 mP and 185.39 mP
p38α MAPK [2]; Time 70 min
  millipolarization mP: 177.53 mP and 176.90 mP and 187.97 mP
p38α MAPK [2]; Time 75 min
  millipolarization mP: 176.40 mP and 178.56 mP and 178.94 mP
p38α MAPK [2]; Time 80 min
  millipolarization mP: 170.47 mP and 176.86 mP and 179.41 mP
p38α MAPK [2]; Time 85 min
  millipolarization mP: 174.74 mP and 171.47 mP and 178.98 mP
p38α MAPK [2]; Time 90 min
  millipolarization mP: 181.04 mP and 173.23 mP and 180.81 mP
p38α MAPK [2]; Time 95 min
  millipolarization mP: 176.14 mP and 169.30 mP and 175.95 mP
p38α MAPK [2]; Time 100 min
  millipolarization mP: 170.48 mP and 168.26 mP and 169.78 mP
p38α MAPK [2]; Time 105 min
  millipolarization mP: 171.74 mP and 175.00 mP and 171.83 mP
p38α MAPK [2]; Time 110 min
  millipolarization mP: 170.01 mP and 167.74 mP and 170.08 mP
p38α MAPK [2]; Time 115 min
  millipolarization mP: 166.92 mP and 166.97 mP and 168.10 mP
p38α MAPK [2]; Time 120 min
  millipolarization mP: 173.62 mP and 170.72 mP and 174.62 mP
p38α MAPK [2]; Time 125 min
  millipolarization mP: 170.41 mP and 162.47 mP and 172.42 mP
p38α MAPK [2]; Time 130 min
  millipolarization mP: 163.64 mP and 172.89 mP and 166.09 mP
p38α MAPK [2]; Time 135 min
  millipolarization mP: 165.07 mP and 173.17 mP and 167.48 mP
p38α MAPK [2]; Time 140 min
  millipolarization mP: 163.17 mP and 162.11 mP and 161.18 mP
p38α MAPK [2]; Time 145 min
  millipolarization mP: 163.48 mP and 161.58 mP and 158.43 mP
p38α MAPK [2]; Time 150 min
  millipolarization mP: 162.36 mP and 163.56 mP and 167.43 mP
p38α MAPK [2]; Time 155 min
  millipolarization mP: 167.52 mP and 168.31 mP and 165.22 mP
p38α MAPK [2]; Time 160 min
  millipolarization mP: 157.97 mP and 163.71 mP and 167.13 mP
p38α MAPK [2]; Time 170 min
  millipolarization mP: 171.90 mP and 157.15 mP and 163.48 mP
p38α MAPK [2]; Time 175 min
  millipolarization mP: 163.57 mP and 163.80 mP and 163.61 mP
p38α MAPK [2]; Time 180 min
  millipolarization mP: 166.27 mP
p38α MAPK [2]; individual replicas 1-3
  TRT: 317 s and 109 s and 270 s
p38α MAPK [2]; mean of 3 replicas
  TRT [sec] mean: 232 s
p38α MAPK [2]; mean ± SD, n = 3, 1/koff, jump dilution 1:100, 40 μM ATP, ATF2, read-out: Target residence time FP (converted)
  residence time: 3.87 min
p38α MAPK [3]; mean ± SD, n = 3, read-out: IC50 isolated enzyme p38α MAPK ELISA (mean)
  IC50: 3.4 nM and 3.35 nM
p38α MAPK [3]; single experiments of source data, read-out: IC50 ELISA, individual determination
  IC50: 3.54 nM and 3.5 nM
p38α MAPK [4]
  Target residence time SPR: 36 s
p38α MAPK [5]; DLD1_eGFP-MK2, conc. 100 pM
  norm. FI (nucleus/ cytoplasm): 0.794
p38α MAPK [5]; DLD1_eGFP-MK2, conc. 1e-9 M
  norm. FI (nucleus/ cytoplasm): 0.8106
p38α MAPK [5]; DLD1_eGFP-MK2, conc. 3e-9 M
  norm. FI (nucleus/ cytoplasm): 0.8345
p38α MAPK [5]; DLD1_eGFP-MK2, conc. 3e-8 M
  norm. FI (nucleus/ cytoplasm): 0.9192
p38α MAPK [5]; DLD1_eGFP-MK2, conc. 1e-7 M
  norm. FI (nucleus/ cytoplasm): 0.9569
p38α MAPK [5]; DLD1_eGFP-MK2, conc. 1e-6 M
  norm. FI (nucleus/ cytoplasm): 1.002
p38α MAPK [5]; DLD1_eGFP-MK2, conc. 1e-5 M
  norm. FI (nucleus/ cytoplasm): 1.014
p38α MAPK [5]; DLD1_eGFP-MK2, conc. 1e-5 M (last column, after 1e-10)
  norm. FI (nucleus/ cytoplasm): 0.8162
p38α MAPK [5]; DLD1_eGFP-MK2 cells, 1 h compound, n = 3, read-out: IC50 cell-based MK2 translocation DLD1
  IC50: 25.6 nM
p38α MAPK [6]; HCT116_eGFP-MK2, conc. 100 pM
  norm. FI (nucleus/ cytoplasm): 0.8572
p38α MAPK [6]; HCT116_eGFP-MK2, conc. 1e-9 M
  norm. FI (nucleus/ cytoplasm): 0.8754
p38α MAPK [6]; HCT116_eGFP-MK2, conc. 3e-9 M
  norm. FI (nucleus/ cytoplasm): 0.8746
p38α MAPK [6]; HCT116_eGFP-MK2, conc. 1e-8 M
  norm. FI (nucleus/ cytoplasm): 0.937
p38α MAPK [6]; HCT116_eGFP-MK2, conc. 3e-8 M
  norm. FI (nucleus/ cytoplasm): 0.9809
p38α MAPK [6]; HCT116_eGFP-MK2, conc. 1e-7 M
  norm. FI (nucleus/ cytoplasm): 1.0322
p38α MAPK [6]; HCT116_eGFP-MK2, conc. 1e-6 M
  norm. FI (nucleus/ cytoplasm): 1.03
p38α MAPK [6]; HCT116_eGFP-MK2, conc. 1e-5 M
  norm. FI (nucleus/ cytoplasm): 1.052
p38α MAPK [6]; HCT116_eGFP-MK2, conc. 1e-5 M (last column, after 1e-10)
  norm. FI (nucleus/ cytoplasm): 0.8753
p38α MAPK [6]; HCT116_eGFP-MK2 cells, 1 h compound, n = 3, read-out: IC50 cell-based MK2 translocation HCT116
  IC50: 14.9 nM
